For one experiment, the system named is GCLC. Put plainly: Midbrain GCLC expression in MPTP Parkinson's disease model mouse (western blot). Format: in vivo. The following applies: for Expression (GCLC/GAPDH): midbrain, MPTP Parkinson's disease model mouse, western blot. As to the method: (§1) Neurotoxins can be used to establish PD animal models. Currently, 1-methyl-4-phenyl-1,2,3,6-tetrahydropyridine (MPTP) is the sole synthetic toxin which is recognized to induce PD symptoms in human and non-human primates and in mice. Using MPTP subacute modeling method, C57BL/6J male mice were intraperitoneally injected with MPTP 30 mg/kg, once a day for 5 consecutive days. The experiment animals were divided into blank control group, MPTP model group, and compound treatment group. For the […] compound treatment group, the compound was administrated by gavage for 21 consecutive days after the completion of modeling; for the MPTP model group, the normal saline was administrated by gavage for 21 consecutive days after the completion of modeling; and for the blank control group, the normal saline was first intraperitoneally injected for 5 days, and then administrated by gavage for 21 days.
(§2) Oxidative stress is an important pathogenic mechanism of PD. Dopaminergic neurons are more sensitive to oxidative stress and are more susceptible to oxidative stress damage. Glutathione (GSH) is an important antioxidant substance in the cell, and glutamate cysteine ligase (GCL) is the rate-limiting enzyme for GSH synthesis, which is composed of catalytic subunit (GCLC) and regulatory subunit (GCLM). The increase of GCLC expression can promote the synthesis of GSH and enhance the ability of tissue cells against oxidative stress. GCL, a phase II enzyme, plays an important protective role by catalyzing the conversion of free radicals into non-toxic products and increasing their water solubility to facilitate the elimination of free radicals, and maintain the redox balance in the body. It plays an important role in the process of protecting cells against oxidative stress damage. The activation of p38 protein phosphorylation has a negative regulatory effect on phase II enzymes. […] Using GCLC as an indicator, the inhibitory effect of the target compounds on MPTP-induced oxidative stress damage in PD mice can be investigated.
GCLC is expressed in astrocytes, microglial cells, and neurons. The total proteins of the midbrain tissue of mice in each experiment group were extracted, to determine the expression of phase II enzyme GCLC in the midbrain of mice by western blot using GAPDH as the internal reference. The experiment included blank control group, MPTP model group, positive control group (caffeic acid phenethyl ester, CAPE), prototype control group (styryl sulfone compounds 3B, 3C, 3D), and 3G, whose structures are shown as above), and target compound group.
A general note: In western blotting, separated proteins are transferred to a membrane and probed.

Experiment [1] concerns the target acetylcholinesterase (AchE) (Homo sapiens, UniProt P22303). Put plainly: biochemical. As for the experimental part: The modified Ellman method was used to determine the inhibitory activity on acetylcholinesterase. The principle lies in that acetylthiocholine iodide is decomposed under the action of acetylcholinesterase (AchE) to generate thiocholine. The thiocholine is quickly reacted with DTNB as the colour-developing agent to generate a yellow substance with light absorption at 405 nm. To a 96-well microplate, 50 μl of enzyme reaction buffer, 125 μl of DTNB (3 mM), 25 μl of test sample or positive control drug, and 25 μl of AchE (0.2 U/ml) were successively added. After incubation at room temperature for 5 min, 25 μl of ATCI (15 mM) was added. After incubation at room temperature for 8 min, the absorbance value was determined at 405 nm with a microplate reader. A blank control group without enzyme (25 μl PBS instead of the sample to be tested) was also established.

A further experiment has as its system midbrain TH. Put plainly: Midbrain TH expression in MPTP Parkinson's disease model mouse (western-blotting). The following applies: midbrain total protein, GAPDH internal reference, gavage 21 days after MPTP modeling. Format: in vivo. As to the method: as §1
The main cause of PD lies in the pathological changes in the substantia nigra-striatum projection system of the brain and the progressive degeneration and loss of dopaminergic neurons. Tyrosine hydroxylase (TH) is the first enzyme in the biosynthesis of catecholamine neurotransmitters, as well as the first rate-limiting enzyme in the dopamine synthesis. It plays an important role in the synthesis and metabolism of the neurotransmitter DA. The TH in PD animal models and patients has a wide range of abnormal changes, from the gene expression to the enzyme protein content and enzyme activity. The detection of the TH expression in the midbrain and substantia nigra of PD model mice can be used to evaluate the neuroprotective activity of the compound.
Half of experiment mice in each group were taken to extract the total midbrain protein, and the change in the midbrain TH was determined by western-blotting using GAPDH as the internal reference. The experiment included blank control group, MPTP model group, positive control group (caffeic acid phenethyl ester, CAPE), prototype control group (styryl sulfone compounds 3B, 3C, 3D, and 3G, whose structures are shown as above), and target compound group.

Another experiment relates to substantia nigra CD11b. Briefly: Number of substantia nigra microglial cells with CD11b positive expression in MPTP Parkinson's disease model mouse (immunohistochemistry). Format: in vivo. The following applies: for Positive cell number (microglial cells with CD11b positive expression): substantia nigra, MPTP Parkinson's disease model mouse, immunohistochemistry. As for the experimental part:
as §1
Neuron-glial cell network homeostasis disorder is an important factor for the selective and progressive death of substantia nigra dopaminergic neurons in PD. In the neurotoxic effect of MPTP, the excessive activations of microglial cells and astrocytes produce a variety of inflammatory cytokines and reactive oxygen species (ROS). These inflammatory factors and ROS amplify their respective toxicities and mediate malignant feedback loop, causing a cascade inflammation response and aggravating the pathological process of PD. CD11b and GFAP are the marker proteins for activations of microglial cells and astrocytes, respectively. Therefore, the effect of the target compounds on the activations of the microglial cells and astrocytes in the substantia nigra, hippocampus, and midbrain areas of MPTP-induced PD mice can be investigated, to explore the mechanism of the anti-PD effect of the target compounds by inhibiting the neuroinflammation.
Half of experiment mice in each group were taken to separate the midbrain after perfusion and fixation. The tissue was trimmed, and the substantia nigra area was taken to prepare paraffin sections. The CD11b immunohistochemical staining was performed for the statistics of the change in the number of microglial cells with CD11b positive expression. The experiment included blank control group, MPTP model group, positive control group (caffeic acid phenethyl ester, CAPE), prototype control group (styryl sulfone compounds 3B, 3C, 3D, and 3G, whose structures are shown as above), and target compound group.

The next experiment relates to HO-1. Put plainly: Midbrain HO-1 expression in MPTP Parkinson's disease model mouse (western blot). In kind it is in vivo. The settings on record: for Expression (HO-1/GAPDH): midbrain, MPTP Parkinson's disease model mouse, western blot. As for the experimental part: as §1
as §2, with “Heme oxygenase (HO-1),” for “Glutathione (GSH) is an important antioxidant substance in the cell, and glutamate cysteine ligase (GCL) is the rate-limiting enzyme for GSH synthesis, which is composed of catalytic subunit (GCLC) and regulatory subunit (GCLM). The increase of GCLC expression can promote the synthesis of GSH and enhance the ability of tissue cells against oxidative stress. GCL,”, “enzyme, is also a well-known antioxidase. It” for “enzyme,”, “HO-1” for “GCLC”
HO-1 is expressed in astrocytes, microglial cells, and neurons. The total proteins of the midbrain tissue of mice in each experiment group were extracted, to determine the expression of phase II enzyme HO-1 in the midbrain of mice by western blot using GAPDH as the internal reference. The experiment included blank control group, MPTP model group, positive control group (caffeic acid phenethyl ester, CAPE), prototype control group (styryl sulfone compounds 3B, 3C, 3D, and 3G, whose structures are shown as above), and target compound group.

Setting [2] is: acetylcholinesterase, modified Ellman method, read-out: IC50.

The results in this text go back to patent US12410124B2 (priority 2019, dated 2025).

Like-named read-outs stand apart in the source and are kept apart here.

acetylcholinesterase (AchE), sequence (P22303 32-614, species assumed): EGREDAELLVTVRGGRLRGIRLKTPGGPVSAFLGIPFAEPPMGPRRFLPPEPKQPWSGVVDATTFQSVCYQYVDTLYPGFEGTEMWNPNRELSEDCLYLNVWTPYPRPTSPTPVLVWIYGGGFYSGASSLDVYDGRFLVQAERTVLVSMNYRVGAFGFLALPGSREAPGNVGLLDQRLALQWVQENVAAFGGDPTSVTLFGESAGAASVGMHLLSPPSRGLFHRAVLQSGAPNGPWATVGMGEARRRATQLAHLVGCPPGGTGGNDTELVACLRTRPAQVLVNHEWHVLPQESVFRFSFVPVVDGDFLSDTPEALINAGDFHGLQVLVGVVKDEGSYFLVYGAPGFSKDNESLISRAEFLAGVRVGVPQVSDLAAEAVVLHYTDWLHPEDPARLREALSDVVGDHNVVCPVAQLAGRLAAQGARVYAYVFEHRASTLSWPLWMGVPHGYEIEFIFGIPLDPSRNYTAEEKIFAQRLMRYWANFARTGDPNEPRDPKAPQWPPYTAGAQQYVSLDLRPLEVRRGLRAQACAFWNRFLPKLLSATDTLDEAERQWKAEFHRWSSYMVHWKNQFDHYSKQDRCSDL

For orientation: IC50 means the concentration that gives 50% inhibition. As for `CCN(CC)C(=O)Oc1ccc(/C=C/S(=O)(=O)Cc2ccc(C(F)(F)F)cc2)cc1OC(=O)N(CC)CC` [Compound B1-1, (E)-4-{2-[(4-trifluoromethylphenyl)mesyl]ethenyl}-1,2-phenylenebis(diethylcarbamate)], in the experiment with GCLC, the “midbrain GCLC expression compared with the styryl sulfone prototype compounds” value was “significantly higher” and the “Expression (GCLC/GAPDH)” value came to 1.17 ± 0.06. The IC50 in experiment [1] (setting [2]) came to 13.3 ± 2.85 µM. For the same molecule, the “Expression (TH/GAPDH)” value in the experiment with midbrain TH was determined as 0.92 ± 0.02. Besides, in the experiment on substantia nigra CD11b, the “number of substantia nigra microglial cells with CD11b positive expression compared with the styryl sulfone prototype compounds” value was “significantly lower” and the “Positive cell number (microglial cells with CD11b positive expression)” value (“Positive cell number” for short) is listed as 32 ± 4. Also, in the experiment on HO-1, the “midbrain HO-1 expression compared with the styryl sulfone prototype compounds” value is “significantly higher” and the “Expression (HO-1/GAPDH)” value is recorded as 0.90 ± 0.10.

Regarding `COc1cc(/C=C/S(=O)(=O)Cc2cc(OC)c(OC)c(OC)c2)ccc1OC(=O)N(c1ccccc1)c1ccccc1` [Compound K3-3, (E)-2-methoxy-4-{2-[(3,4,5-trimethoxyphenyl)mesyl]ethenyl}-phenyl-N,N-diphenylcarbamate], the “Expression (GCLC/GAPDH)” value with GCLC is 0.86 ± 0.04. For the same molecule, the IC50 in experiment [1] (setting [2]) worked out at 38.3 ± 2.79 µM. In addition, in the experiment on midbrain TH, the “Expression (TH/GAPDH)” value came to 1.15 ± 0.05. Moreover, the “Positive cell number” value in the experiment on substantia nigra CD11b is 39 ± 3. In the experiment on HO-1, the “Expression (HO-1/GAPDH)” value was found to be 0.69 ± 0.07.

Turning to `CC[Si](CC)(Oc1ccc(C(Cl)S(=O)(=O)/C=C/c2ccc(OC(=O)N3CC(C)OC(C)C3)c(OC(=O)c3cccc(Cl)c3OC)c2)cc1)c1ccccc1` (stereo not shown) [Compound R1-5, (E)-4-{2-[4-(diethylphenylsiloxy)phenylchloromesyl]ethenyl}-2-(3-chloro-2-methoxybenzoyloxy)phenyl-2,6-dimethylmorpholine-4-carboxylate], the “Expression (GCLC/GAPDH)” value in the experiment with GCLC amounted to 1.02 ± 0.09. Also, the IC50 in experiment [1] (setting [2]) was determined as 27.5 ± 3.49 µM. In addition, the “Expression (TH/GAPDH)” value with midbrain TH is 0.94 ± 0.03. In addition, the “Positive cell number” value in the experiment with substantia nigra CD11b is given as 39 ± 6. Moreover, the “Expression (HO-1/GAPDH)” value with HO-1 stood at 0.87 ± 0.06.

As for `Cc1ccc(S(=O)(=O)Oc2ccc(CS(=O)(=O)/C=C/c3ccc(OS(=O)(=O)c4ccc(C)cc4)c(OC(=O)N(C)S(=O)(=O)c4ccc(C)cc4)c3)cc2)cc1` [Compound S6-6, (E)-2-(N-methyl-N-p-tosylcarbamoyloxy)-4-{2-[(4-p-tosyloxyphenyl)mesyl]ethenyl}phenyl p-toluenesulfonate], the “Expression (GCLC/GAPDH)” value in the experiment on GCLC is given as 1.29 ± 0.08. For the same molecule, it took 15.6 ± 3.07 µM to reach half-maximal inhibition in experiment [1] (IC50). In addition, in the experiment on midbrain TH, the “Expression (TH/GAPDH)” value turned out to be 1.07 ± 0.06. Further, in the experiment on substantia nigra CD11b, the “Positive cell number” value is given as 19 ± 2. In the experiment on HO-1, the “Expression (HO-1/GAPDH)” value was 1.08 ± 0.11.

Regarding `Cc1ccc(N2CCN(C(=O)Oc3ccc(/C=C/S(=O)(=O)CCCC(c4ccc(OC(=O)CN(C)C)cc4)N(C)C)cc3OC(=O)N(C)c3ccccc3)CC2)cc1` (stereo not shown) [Compound P1-1, (E)-4-{2-[4-(dimethylamino)-4-(4-(N,N-dimethylglycyloxy)phenyl)butylsulfonyl]ethenyl}-2-(N-methyl-N-phenylcarbamoyloxy)phenyl-4-(p-methylphenyl)piperazine-1-carboxylate], the “Expression (GCLC/GAPDH)” value in the experiment on GCLC stood at 0.98 ± 0.06. The molecule further had an IC50 in experiment [1] of 11.3 ± 1.48 µM. For the same molecule, the “Expression (TH/GAPDH)” value in the experiment on midbrain TH is on record as 0.88 ± 0.04. The “Positive cell number” value in the experiment with substantia nigra CD11b was 26 ± 3. The “Expression (HO-1/GAPDH)” value in the experiment with HO-1 came out at 1.17 ± 0.05.

As to `CCN(CC)C(=O)Oc1ccc(/C=C/S(=O)(=O)Cc2ccc(Cl)cc2)cc1OC(=O)N(CC)CC` [Compound D1-1, (E)-4-{2-[(4-chlorophenyl)mesyl]ethenyl}-1,2-phenylenebis(diethylcarbamate)], in the experiment with GCLC, the “midbrain GCLC expression compared with the styryl sulfone prototype compounds” value was “significantly higher” and the “Expression (GCLC/GAPDH)” value is listed as 1.29 ± 0.05. Also, the IC50 in experiment [1] (setting [2]) was found to be 4.16 ± 1.07 µM. Moreover, the “Expression (TH/GAPDH)” value in the experiment with midbrain TH turned out to be 1.27 ± 0.05. Besides, in the experiment with substantia nigra CD11b, the “number of substantia nigra microglial cells with CD11b positive expression compared with the styryl sulfone prototype compounds” value is reported as “significantly lower” and the “Positive cell number” value worked out at 15 ± 3. Moreover, in the experiment on HO-1, the “midbrain HO-1 expression compared with the styryl sulfone prototype compounds” value was “significantly higher” and the “Expression (HO-1/GAPDH)” value is 1.63 ± 0.12.

For `CC(C)(C)c1ccc(CS(=O)(=O)/C=C/c2ccc(O)c(O)c2)cc1` [Compound 3G, (E)-4-{2-[(4-t-butylphenyl)mesyl]ethenyl}benzene-1,2-diol, reference compound], the “Expression (GCLC/GAPDH)” value with GCLC is given as 0.57 ± 0.09. For the same molecule, in experiment [1] (setting [2]), the IC50 is over 100 µM. The “Expression (TH/GAPDH)” value in the experiment on midbrain TH is listed as 0.45 ± 0.05. Further, in the experiment on substantia nigra CD11b, the “Positive cell number” value amounted to 52 ± 5. The “Expression (HO-1/GAPDH)” value with HO-1 is on record as 0.51 ± 0.07.

Take `CCN(C)C(=O)Oc1ccc(/C=C/S(=O)(=O)CC(c2ccc(-c3ccc(OC)c(OC)c3)cc2)[N+](=O)[O-])cc1OC(=O)N(C)CC` (stereo not shown) [Compound M1-1, (E)-4-{2-[2-(3′,4′-dimethoxy-[1,1′-biphenyl]-4-yl)-2-nitroethylsulfonyl]ethenyl}-1,2-phenylenebis(N-ethyl-N-methylcarbamate)]: the “Expression (GCLC/GAPDH)” value in the experiment with GCLC stood at 1.30 ± 0.09. In experiment [1], this molecule returned a half-maximal inhibitory concentration (IC50) of 6.6 ± 0.71 µM. The “Expression (TH/GAPDH)” value in the experiment on midbrain TH is reported as 1.35 ± 0.04. Besides, the “Positive cell number” value with substantia nigra CD11b amounted to 20 ± 3. The “Expression (HO-1/GAPDH)” value with HO-1 was found to be 1.29 ± 0.07.
